Where two headings read alike, the source gives them in different places.
Assays:
[1] = system: HIV-1 LTR-III G-quadruplex (FAM/TAMRA-labeled LTR-III); assay: FRET melting assay, LTR-III G4; format: binding; conditions: for LTR III stabilization: Figure 7, stabilization group; for LTR-III ΔTm: Table S1 primary screening, ligand:ODN 50:1, singlicate; for LTR-III (average): Table S12, average stabilization
Outline: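 Melting is followed by FAM fluorescence (ex 495/em 520 nm) while heating at 1 °C/min from 30 to 95 °C. Labelled ODN at 0.5 μM, pre-annealed in 10 mM Li cacodylate, 100 mM KCl, pH 7.4, mixed with ligand at 50:1 (25 μM), or 20:1 and 2:1 for titration. ΔTm is relative to the 0.25% DMSO buffer control.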

MT4 cells = assay: Cytotoxicity test; format: cell-based; conditions: for CC50: Figure 7; for СС50 (MT4): Table S12, nine days
Protocol: (§1) Green monkey kidney (Vero, Beach, FL, USA) cell line was maintained in 2 × Eagle MEM (“Chumakov FSC R&D IBP RAS”, Russia) with 5% FBS with L-glutamine, penicillin and streptomycin. […] HIV-1 strain NL4-3 was obtained via cell transfection with pNL4-3 3 (ARP2006, NIBSC, Potters Bar, UK).
(§2) MT4 cell suspensions were added to the wells with compound dilutions and DMSO control (approx. 2 × 10^4 cells per well). […] All experimental procedures were performed in two replicates and were repeated two to four times. Mean and SD were calculated with OriginPro 8 (OriginLab, St. Louis, MO, USA).

Cytotoxicity test = format: cell-based; conditions: human, Figure 7
Protocol: as §1, §2

[2] = system: HIV-1 strain NL4-3 in MT4 cells; assay: Cytopathic effect inhibition test; format: cell-based; conditions: HIV-1 NL4-3, MT4 cells
Protocol: Human T cell leukemia (MT4) cell line was maintained in RPMI-1640 (“Chumakov FSC R&D IBP RAS”, Moscow, Russia) with 10% of fetal bovine serum (FBS, Invitrogen, Waltham, MA, USA), L-glutamine and gentamicin. Green monkey kidney (Vero, Beach, FL, USA) cell line was maintained in 2 × Eagle MEM (“Chumakov FSC R&D IBP RAS”, Russia) with 5% FBS with L-glutamine, penicillin and streptomycin. Cell cultures were incubated in the present of 5% CO2 at 37 °C. HIV-1 strain NL4-3 was obtained via cell transfection with pNL4-3 3 (ARP2006, NIBSC, Potters Bar, UK).
Eight two-fold dilutions of stock solutions of the compounds in two replicates were prepared in RPMI-1640 (“Chumakov FSC R&D IBP RAS”, Russia). Compound dilutions were mixed with equal volumes of the virus suspension containing 100 CCID50 (50% tissue culture infectious dose). Control cells were treated with the same sequential concentrations of DMSO as in compound dilutions. Then, the MT4 cell suspension (approx. 2 × 10^4 cells per well) in RPMI-1640 containing 10% FBS (Invitrogen, South America) was added to experimental mixtures. A final concentration series started from 25 μM. Each experiment contained virus dose titration in the inoculate to assure the acceptable dose-range. After a nine-day incubation (5% CO2, at 37 °C), cytopathic effect (CPE) was visually accessed via microscope. EC50 values were calculated according to the Karber method. All experimental procedures were performed in two replicates and were repeated two to four times. Mean and SD were calculated with OriginPro 8 (OriginLab, St. Louis, MO, USA).

[3] = Table S12, CPE, nine-day incubation, read-out: EC50
[4] = Figure 7, read-out: Antiviral activity EC50 (HIV)

Structure (SMILES) | LTR-III ΔTm [1] [°C] | also measured
COc1ccc(C=C2N=C(CC(C)C)C(=O)N(OC)C2=O)cc1 [M 802] | -2.3 | LTR III stabilization [1]: < 1 °C; LTR-III (average) [1]: -2,3 °C; CC50 (MT4 cells): 7 ± 3 µM; СС50 (MT4) (MT4 cells): 6.6 ± 3.1 µM
COc1cc(/C=C2N=C(/C=C/c3cc(Br)c(O)c(Br)c3)N(CCN)C\2=O)cc(OC)c1O.Cl [AR559] | – | LTR-III (average) [1]: 1,2 °C; CC50 at 9 days (Cytotoxicity test; MT4 cells): > 25 µM; СС50 (MT4) (MT4 cells): > 25 µM
O=C1/C(=C/c2cccs2)N=C(/C=C/c2ccc(O)cc2)N1CCc1ccc(O)cc1 [MID 161] | -2.6 | LTR III stabilization [1]: < 1 °C; LTR-III (average) [1]: -1,7 °C; CC50 at 9 days (Cytotoxicity test; MT4 cells (human T cell leukemia)): 17 ± 5 µM; СС50 (MT4) (MT4 cells): 17.3 ± 5.7 µM; EC50 ([2]; Human immunodeficiency virus 1, NL43, 216 h, Table S12, CPE, nine-day incubation, read-out: EC50): 7.7 ± 2.2 µM; EC50 ([2]; Human immunodeficiency virus 1, NL43, Figure 7, read-out: Antiviral activity EC50 (HIV)): 8 ± 2 µM
Cc1cn([C@H]2C[C@H](N=[N+]=[N-])[C@@H](CO)O2)c(=O)[nH]c1=O [AZT, reference compound] | – | СС50 (MT4) (MT4 cells): 8.0 ± 1.5 µM; EC50 [2, 3]: 0.0071 ± 0.00043 µM
COc1ccc(C=C2N=C(C)N(CC(N)=O)C2=O)cc1 [SA 120] | -2.1 | LTR III stabilization [1]: < 1 °C; LTR-III (average) [1]: -1,35 °C; CC50 (MT4 cells): > 25 µM; СС50 (MT4) (MT4 cells): > 25 µM
COc1cc(O)ccc1/C=C1N=C(/C=C/N(C)C)N(C)C\1=O [N 1122] | 2.3 | LTR-III (average) [1]: 2,3 °C; CC50 (MT4 cells): > 25 µM; СС50 (MT4) (MT4 cells): > 25 µM
COc1cc(C=CC2=NC(=Cc3ccc(O)cc3)C(=O)N2C)cc(OC)c1O [N 906] | 0.1 | LTR III stabilization [1]: < 1 °C; LTR-III (average) [1]: 0,1 °C; CC50 (MT4 cells): 7 ± 3 µM; СС50 (MT4) (MT4 cells): 6.6 ± 3.1 µM
COc1ccc(OC)c(C=C2N=C(C)N(C)C2=O)c1 [N 840] | -2.5 | LTR III stabilization [1]: < 1 °C; LTR-III (average) [1]: -1,55 °C; CC50 (MT4 cells): > 25 µM; СС50 (MT4) (MT4 cells): > 25 µM
COc1cc(O)ccc1C=C1N=C(C=Cc2c(F)c(F)c(F)c(F)c2F)N(C)C1=O [N 1049] | 1.8 | LTR-III (average) [1]: 1,8 °C; CC50 (MT4 cells): 5 ± 3 µM; СС50 (MT4) (MT4 cells): 5.2 ± 2.5 µM; EC50 [2, 4]: 2 ± 1 µM; EC50 [2, 3]: 2.1 ± 1.4 µM
COc1c(O)ccc(C=C2N=C(C=Cc3ccncc3)N(C)C2=O)c1O [N 1069] | 2.7 | LTR-III (average) [1]: 2,7 °C; CC50 (MT4 cells): 6 ± 2 µM; СС50 (MT4) (MT4 cells): 6.0 ± 2.0 µM; EC50 [2, 4]: 4 ± 2 µM; EC50 [2, 3]: 4.23 ± 1.75 µM
COc1ccc(/C=C/C2=NC(=C\c3ccc(O)cc3)/C(=O)N2CCNC(C)=O)cc1 [ccE 4] | 2.8 | LTR-III (average) [1]: 2,8 °C; CC50 (MT4 cells): > 25 µM; СС50 (MT4) (MT4 cells): > 25 µM
COc1ccc(C(=O)Oc2ccccc2)cc1 [M 939] | -1.1 | –
CC1=NC(=Cc2ccc(O)cc2)C(=O)N1CCO [GA 12] | 0.3 | –
CN1C(=O)C(=Cc2ccc(O)c(F)c2)N=C1c1ccccc1 [SA 49.1] | 0 | –
CC1=NC(=Cc2cccc([N+](=O)[O-])c2)C(=O)N1CC(N)=O [SA 128] | 0.1 | –
CNC(=O)C(=Cc1ccc(O)c(CO)c1)NC(=O)c1ccccc1 [X 29] | -0.6 | –
CN1C(=O)C(=Cc2ccc(O)cc2)N=C1C=Cc1ccc(N(C)C)cc1 [ccA 22] | 0.3 | –
COc1ccc(C=C2N=C(Nc3ccc(OC)cc3)N(C)C2=O)cc1 [SA 168] | -0.4 | –
CC1=NC(=Cc2ccc(Br)cc2)C(=O)N1Cc1ccccc1 [X 9] | -0.6 | –
CC(C)OC(=O)c1noc(C(=O)NCc2ccccc2)c1-c1cccs1 [SA 330E] | -0.7 | –
CC1=NC(=Cc2ccc3cc(N4CCOCC4)ccc3c2)C(=O)N1C [X 002] | -0.6 | –
COc1ccc(C=C2N=C(Nc3ccc(Br)cc3)N(C)C2=O)cc1 [SA 158] | 0.2 | –
CNC(=O)c1onc(C(=O)OC(C)C)c1-c1ccc(N(C)C)cc1 [SA 332.1] | -0.4 | –
CN1C(=O)C(=Cc2ccc(O)cc2)N=C1C=Cc1ccccc1 [ccA 1] | 0.6 | –
CC1=NC(=Cc2ccc([N+](=O)[O-])cc2)C(=O)N1C [SA 412] | 0 | –

Structure (SMILES) | LTR-III ΔTm [1] [°C] | also measured
CN1C(=O)C(=Cc2ccc(O)cc2N(C)C)N=C1C=Cc1ccncc1 [MID 213] | 0.9 | –
COc1cccc(C=C2N=C(C)N(CCNC(=O)OC(C)(C)C)C2=O)c1 [M 2026f] | -0.4 | –
COc1ccc(-c2c(C(=O)OC(C)C)noc2C(=O)N2CCOCC2)cc1 [SA 341A] | -0.7 | –
CC1=NC(=C(N)c2ccc(Br)cc2)C(=O)N1C [ZS 190] | -0.5 | –
COc1ccc(C=C2C(=O)N(C)C(C)=[N+]2C)cc1.O=S(=O)([O-])C(F)(F)F [M 2060] | -0.2 | –
CCC(=O)n1cc(C=C2N=C(CC)OC2=O)c2c(C)cccc21 [M 1977] | 0 | –
CCC(=O)NC(=Cc1c[nH]c2ccccc12)C(=O)NC [SV 13] | -0.1 | –
CC1=NC(=Cc2ccccc2)C(=O)N1CCNC(=O)OC(C)(C)C [M 2022d] | -0.3 | –
COc1cc(O)ccc1C=C1N=C(C)N(C)C1=O [N 865] | 0.8 | –
CC1=NC(=Cc2ccco2)C(=O)N1C [M 1583.2] | -0.5 | –
COc1cc(O)ccc1/C=C1\N=C(C(=O)c2ccccc2)N(C)C1=O [N 1139] | 0.6 | –
COc1cccc(C=C2N=C(C)N(C)C2=O)c1 [SV 50.11] | -0.2 | –
CCN(CC)c1ccc(C=C2N=C(C=CC=Cc3ccc(OC)cc3)N(C)C2=O)c(B(F)F)c1 [M 1971c] | 0.6 | –
CN1C(=O)C(=Cc2ccc(O)cc2)N=C1C=Cc1cc(Cl)c(O)c(Cl)c1 [N 914] | -0.8 | –
CC1=NC(=Cc2ccc(O)c(C(=O)O)c2)C(=O)N1C [SV 51.1] | -0.4 | –
COC(=O)c1ccc(C=C2N=C(C)N(C)C2=O)cc1 [SA 400] | 0 | –
CON1C(=O)C(=Cc2ccc(O)cc2)N=C1CCC(C)C [M 552] | 0 | –
CNC(=O)c1onc(C(=O)OC(C)C)c1-c1ccccc1 [SA 325A] | -0.5 | –
COc1ccc(C=C2N=C(C)N(Cc3ccccc3)C2=O)cc1 [ZS 128] | -0.3 | –
CCOC(=O)/C=C/c1ccc(O[Si](c2ccccc2)(c2ccccc2)C(C)(C)C)cc1 [M 1352] | -0.5 | –
COc1cc(O)ccc1C=C1N=C(C(F)(F)F)N(C)C1=O [M 2738c] | 0.4 | –
CC(C)OC(=O)c1noc(C(=O)NCc2ccccc2)c1-c1ccc(O)cc1 [SA 345B] | -0.8 | –
O=C1NC(=S)SC1=Cc1ccc(O)c(Br)c1 [SAI 117] | -0.2 | –
COc1c(O)ccc(/C=C2\N=C(C)N(C)C2=O)c1O [N 1042] | 1.4 | –
CC1=NC(=C(N)c2ccc(Cl)cc2)C(=O)N1C [ZS 178] | -0.3 | –
